Laboratory results as given in paper PMC4368888, “Preclinical to Clinical Translation of CNS Transporter Occupancy of TD-9855, a Novel Norepinephrine and Serotonin Reuptake Inhibitor” (International Journal of Neuropsychopharmacology, 2015).

Key:
human recombinant DAT = target: T1, human recombinant DAT (Homo sapiens, UniProt Q01959); assay: [3H]-DA uptake inhibition in hDAT cells; type: cell-based; details: mean (95% CI), 3 to 9 experiments, read-out: Neurotransmitter Uptake Inhibition: pIC50 DAT (converted)
T1 construct: expressed in transfected cells; 'hDAT cells' for uptake
T1 sequence (Q01959 whole entry): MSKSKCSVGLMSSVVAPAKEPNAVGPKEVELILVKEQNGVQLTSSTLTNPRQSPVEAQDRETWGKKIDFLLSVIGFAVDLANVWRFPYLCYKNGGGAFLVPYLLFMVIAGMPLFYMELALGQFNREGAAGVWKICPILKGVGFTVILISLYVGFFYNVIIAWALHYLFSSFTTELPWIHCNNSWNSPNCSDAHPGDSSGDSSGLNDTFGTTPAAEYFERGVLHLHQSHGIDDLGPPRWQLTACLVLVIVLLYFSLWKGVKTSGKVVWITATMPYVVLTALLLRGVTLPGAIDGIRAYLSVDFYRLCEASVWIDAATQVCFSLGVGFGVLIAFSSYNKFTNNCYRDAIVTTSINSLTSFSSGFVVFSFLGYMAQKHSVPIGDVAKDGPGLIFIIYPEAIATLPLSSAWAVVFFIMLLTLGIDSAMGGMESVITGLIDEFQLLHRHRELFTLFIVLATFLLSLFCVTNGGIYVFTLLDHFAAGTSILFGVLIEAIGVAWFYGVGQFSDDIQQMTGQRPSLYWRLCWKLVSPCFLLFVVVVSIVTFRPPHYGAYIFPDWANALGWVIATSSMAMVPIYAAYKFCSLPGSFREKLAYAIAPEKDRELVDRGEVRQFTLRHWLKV
From the text: (§1) The in vitro pharmacology of TD-9855 (4-[2-(2, 4, 6-trifluorophenoxymethyl)phenyl]piperidine; Figure 1) at human recombinant and rat native monoamine transporters was characterized as described previously ([Tsuruda et al., 2010]; [Shen et al., 2013]). Radioligands were sourced commercially (Perkin Elmer Life Sciences or GE Healthcare Life Sciences). Briefly, membranes prepared from HEK293 (Human Embryonic Kidney 293) cells stably-transfected with human recombinant SERT (HEK293-hSERT), NET (HEK293-hNET), or DAT ([…]) were incubated for 1hr at 22°C in the absence, or presence, of TD-9855 and [^3H]-citalopram (1.0nM) for SERT, [^3H]-nisoxetine (2.0nM) for NET, and [^3H]-WIN35428 (3.0nM) for DAT in 50mM Tris-HCl, 120mM NaCl, 5mM KCl, 0.025% BSA, 100 μM ascorbic acid, pH 7.4. Rat cortical membrane preparations were incubated with [^3H]-citalopram (2.0nM) for SERT or [^3H]-nisoxetine (4.0nM) for NET for 1hr at 22°C. […] Binding and uptake assays were terminated by rapid filtration and radioactivity, determined by liquid scintillation spectroscopy.

rat native NET = rat native NET (Rattus norvegicus, UniProt Q63380); assay: [3H]-nisoxetine binding, rat cortical membranes; set-up: at human recombinant and rat native monoamine transporters; from tissue; details: mean (95% CI), 3 to 9 experiments, read-out: Transporter Binding: pKi NET (converted)
Sequence of rat native NET (Q63380 1-617): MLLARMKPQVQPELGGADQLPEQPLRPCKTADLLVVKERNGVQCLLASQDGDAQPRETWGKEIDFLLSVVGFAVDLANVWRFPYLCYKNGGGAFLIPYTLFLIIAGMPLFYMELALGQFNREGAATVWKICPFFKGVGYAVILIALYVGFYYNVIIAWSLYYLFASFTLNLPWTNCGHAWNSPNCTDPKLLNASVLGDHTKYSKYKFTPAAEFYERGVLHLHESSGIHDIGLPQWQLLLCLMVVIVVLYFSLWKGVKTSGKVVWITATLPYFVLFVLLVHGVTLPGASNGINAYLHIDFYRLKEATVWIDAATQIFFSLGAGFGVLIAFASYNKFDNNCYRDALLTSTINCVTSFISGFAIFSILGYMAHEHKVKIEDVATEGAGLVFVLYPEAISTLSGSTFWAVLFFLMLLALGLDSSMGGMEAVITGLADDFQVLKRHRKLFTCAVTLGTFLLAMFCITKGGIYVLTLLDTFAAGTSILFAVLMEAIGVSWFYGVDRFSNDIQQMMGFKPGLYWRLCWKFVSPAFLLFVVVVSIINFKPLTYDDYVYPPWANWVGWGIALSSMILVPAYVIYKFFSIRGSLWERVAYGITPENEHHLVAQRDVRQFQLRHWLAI
From the text: as §1

SERT = target: T2, SERT (Rattus norvegicus, UniProt P31652); assay: Ex vivo SERT occupancy in rat spinal cord with PK/PD modeling; details: estimate (% CV)
T2 construct: from tissue; host or cells: rat lumbar spinal cord after oral dosing
T2 sequence (P31652 whole entry): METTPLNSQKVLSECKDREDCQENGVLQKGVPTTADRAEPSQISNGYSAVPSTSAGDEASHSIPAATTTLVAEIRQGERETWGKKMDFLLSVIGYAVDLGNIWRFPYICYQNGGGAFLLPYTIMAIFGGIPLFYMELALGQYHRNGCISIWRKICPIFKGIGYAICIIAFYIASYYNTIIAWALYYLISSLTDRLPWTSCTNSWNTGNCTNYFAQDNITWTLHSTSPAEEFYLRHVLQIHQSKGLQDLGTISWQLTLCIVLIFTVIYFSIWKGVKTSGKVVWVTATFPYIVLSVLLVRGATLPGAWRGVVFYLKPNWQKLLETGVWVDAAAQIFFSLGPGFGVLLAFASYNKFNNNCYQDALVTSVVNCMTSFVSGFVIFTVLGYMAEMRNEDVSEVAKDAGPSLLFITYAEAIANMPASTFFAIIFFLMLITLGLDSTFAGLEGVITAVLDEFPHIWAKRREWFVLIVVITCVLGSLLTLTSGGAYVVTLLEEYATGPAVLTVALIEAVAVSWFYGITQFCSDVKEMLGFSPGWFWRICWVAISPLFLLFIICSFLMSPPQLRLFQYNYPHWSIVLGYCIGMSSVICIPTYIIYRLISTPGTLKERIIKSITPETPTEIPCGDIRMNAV
Protocol: TD-9855 Rat Administration and Sampling — Rats (n = 6/timepoint/dose level) received a single oral dose of TD-9855 (0.3, 1, 5, 10, 30, and 60mg/kg) and were euthanized by decapitation at specified time points (0.5, 2, 4, 6, and 8hr for 5mg/kg dose level; 2hr for 0.3, 1, 10, 30, and 60mg/kg dose levels) post-administration. Spinal cords were dissected for ex vivo transporter occupancy and PK assessments from the same animals. The spinal cord was harvested by hydraulic extrusion using phosphate-buffered saline, and the lumbar segment dissected and frozen on dry ice. The remaining spinal cord segments were collected and homogenized in water (25% w/w) for PK analysis. All samples were stored at -80 °C until analysis.
A kinetic radioligand binding assay was used to determine NET and SERT occupancy in rat spinal cord, as described previously ([Bourdet et al., 2012]).
Rat PK/PD Modeling — PK/PD parameters were estimated by a compartmental modeling approach (WinNonlin Version 5.0.1, Pharsight Corporation). One- and two-compartment PK models with first-order absorption and elimination were evaluated. The one-compartment model was selected. The pharmacodynamic model was an effect compartment Emax model linked directly to the central PK compartment (WinNonlin PK Model 3, PD Model 101). Selection of models was based upon best fit in terms of visual inspection, Akaike Information Criteria, and weighted residual sum of squares using the Gauss-Newton minimization method. The following parameters were estimated:
Emax (% occupancy): Maximal SERT or NET occupancy in spinal cord
keo (hr^-1): First-order equilibration rate constant between the central pharmacokinetic compartment and the pharmacodynamic effect compartment

[1] = Safety and tolerability in Phase 1 PET study; type: in vivo, human; details: healthy males, single oral dose 4-20mg
Protocol: All adverse events (AEs) were assessed by the investigator and recorded in the case report form, including the dates of onset and resolution, severity, relationship to study drug, outcome, and action taken with study medication after the dosing of TD-9855 through the follow-up visit. Safety was assessed during the entire study by measurement of vital signs, laboratory tests, and evaluation of ECGs.

Fc1cc(F)c(OCc2ccccc2C2CCNCC2)c(F)c1 [TD-9855, 4-[2-(2,4,6-trifluorophenoxymethyl)phenyl]piperidine]
IC50 (human recombinant DAT): 158 nM | Ki (rat native NET): 2 nM | Emax (% Occupancy), SERT (SERT; rat spinal cord, oral 0.3-60mg/kg): 79.0 (53) % Occupancy | EC50 (SERT; rat spinal cord, plasma EC50): 158 nM | keo, SERT (SERT; rat, equilibration rate constant plasma to effect compartment): 11.0 (86) hr^-1 | clinical laboratory values, physical examination, vital signs, ECG [1]: No clinically significant abnormalities | deaths and adverse events [1]: No deaths, severe AEs, or AEs occurred | overall tolerability [1]: well tolerated
